Test results reported in patent US5290789A, “Penta and tetrasubstituted piperidines and compositions and method of treating psychosis” (Sterling Wintrop Inc., priority 1992, dated 1994).
Like-named read-outs stand apart in the source and are kept apart here.

Assays:
sigma receptors [1] = biological target: T1, sigma receptors (Cavia porcellus, UniProt Q60492); assay: sigma receptor binding, [^3 H]-(+)-pentazocine, guinea pig brain membranes; conditions: for inhibition at 10 µM: 2.5 h, inhibition of binding at 10 μM, [^3 H]-(+)-pentazocine approximately 0.5 nM, read-out: [^3 H] (+)-Pentazocine Percent Inhibition
T1 construct: Brain tissue was prepared from male Hartley guinea pigs; from tissue; host or cells: guinea pig brain membranes
Procedure: (§1) Brain tissue was prepared from male Hartley guinea pigs (Hazelton Labs, Denver, Pa.) which were anesthetized with CO2 and sacrificed by decapitation. All animal care and use procedures were in accord with the "Guide for the Care and Use of Laboratory Animals" (NIH Publ. No. 86-23, 1985). Homogenization was performed in 10 volumes (wt/vol) of 0.32 M sucrose with a Brinkmann Polytron at setting 5, 30 sec. The homogenate was centrifuged at 900×g for 10 min at 4° C., and the supernatant was collected and centrifuged at 22,000×g for 20 min at 4° C. The pellet was resuspended in 10 volumes of Tris-HCl buffer (50 mm, pH 7.4), incubated at 37° C. for 30 min, and centrifuged at 22,000×g for 20 min at 4° C. Following this, the pellet was resuspended in Tris buffer and frozen in 5-10 mL aliquots corresponding to a tissue concentration of 100 mg/ml, at -70° C. Binding characteristics of the membranes were stable for at least one month when stored at -70° C.
On the day of the assay, membrane aliquots were thawed, resuspended in fresh Tris-HCl buffer and stored on ice until use. Each assay tube contained 100 μL of [^3 H]-(+)-pentazocine at a final concentration of approximately 0.5 nM or 100 μL of [^3 H)di(2-tolyl)guanidine (DTG) at a final concentration of approximately 4 nM, 100 μL of various concentrations of the compounds of interest, 500 μL of the tissue suspension and 300 μL of buffer to a final assay volume of 1 mL and a final tissue concentration of approximately 8 mg/tube, corresponding to approximately 0.15 mg protein/tube. Non-specific binding was defined by addition of a final concentration of 1 μM haloperidol to blank tubes for [^3 H](+)-pentazocine assay or by addition of a final concentration of 10 μM haloperidol to blank tubes for [^3 H]DTG assay. All tubes were incubated at 37° C. for 150 min in the [^3 H](+) -pentazocine assay or at 25° C. for 90 min in the [^3 H]DTG assay before termination of the reaction by rapid filtration over Whatman GF/B glass fiber filters that were presoaked in a solution of 0.5% polyethyleneimine for at least 1 hr prior to use. Filters were washed with three 4 ml volumes of cold Tris-HCl buffer.
Following addition of scintillation cocktail, samples were allowed to equilibrate for at least 4 hr. The amount of bound radioactivity was determined by liquid scintillation spectrometry using a Beckman LS 5000 TA liquid scintillation counter with an efficiency for tritium of approximately 60%. The results are reported as a percent (%) inhibition of binding at 10 μM.
(§2) Scatchard parameters and inhibition constants (Ki values) for the binding of test compounds were also calculated using the EBDA/LIGAND program (McPherson, J. Pharmacol. Meth. 1985, 14, 213-228), purchased from Elsevier/Biosoft, Inc. The Ki values are expressed as the mean or the mean ±SEM of at least two separate determinations performed in triplicate.

sigma receptors [2] = assay: sigma receptor binding, [^3 H]di(2-tolyl)guanidine (DTG), guinea pig brain membranes; conditions: inhibition of binding at 10 μM; [^3 H]DTG approximately 4 nM, 25° C., 90 min
Procedure: as §1
On the day of the assay, membrane aliquots were thawed, resuspended in fresh Tris-HCl buffer and stored on ice until use. […]
Following addition of scintillation cocktail, samples were allowed to equilibrate for at least 4 hr. The amount of bound radioactivity was determined by liquid scintillation spectrometry using a Beckman LS 5000 TA liquid scintillation counter with an efficiency for tritium of approximately 60%. […]
as §2

[3] = test system: apomorphine-induced stereotypy; assay: apomorphine-induced stereotypy assay; type: in vivo, mouse (male, Swiss-Webster); conditions: test compound i.p., apomorphine 5.5 mg/kg s.c.; rated 20-30 minutes post drug treatment
Procedure: (§3) The compound of Example 4 was tested in vivo in the apomorphine-induced climbing assay and the apomorphine-induced stereotypy assay using the following procedures:
(§4) Male, Swiss-Webster mice (Taconic Farms, Germantown, N.Y.) weight 20-30 grams were grouped housed in colony facilities for a minimum of two days prior to testing. The colony facility was maintained on a 12 hour light/dark cycle (light: 0600-1800 hours) with water and Agway Prolab 100 rat chow available ad libitum. Each mouse was given an injection of test compound i.p. followed immediately by a s.c. injection of apomorphine 5.5 mg/kg or vehicle. All drugs were administered in a volume of 10 ml/kg body weight. The mice were then placed in individual cylindrical stainless steel climbing cages; 14.5 cm tall, 12 cm in diameter, with walls consisting of 1/16" O.D. bars spaced 0.8-1.0 cm apart, and were allowed to habituate to this environment for 20 minutes. […] Briefly, a (0) was scored for absence of any stereotypic behavior, infrequent stereotypic movements were scored as (1) , a (2) was scored for permanent sniffing and a score of (3) indicated intense and continuous stereotypic behavior. Treatment means for the 10 minute totals were calculated for climbing and stereotypy. […] A minimal effective dose (MED) for inhibition was determined for each parameter based on these analyses.

[4] = test system: apomorphine-induced climbing; assay: apomorphine-induced climbing assay; type: in vivo, mouse (male, Swiss-Webster); conditions: Mus musculus, ip; test compound i.p., apomorphine 5.5 mg/kg s.c.; rated 20-30 minutes post drug treatment; Dunnett's Test P<0.05; read-out: minimal effective dose (MED) for inhibition of apomorphine-induced climbing
Procedure: as §3, §4

[5] = mean or mean ±SEM of at least two separate determinations performed in triplicate, 37° C., 150 min, read-out: [^3 H] (+)-Pentazocine Ki

T1 sequence (Q60492 whole entry): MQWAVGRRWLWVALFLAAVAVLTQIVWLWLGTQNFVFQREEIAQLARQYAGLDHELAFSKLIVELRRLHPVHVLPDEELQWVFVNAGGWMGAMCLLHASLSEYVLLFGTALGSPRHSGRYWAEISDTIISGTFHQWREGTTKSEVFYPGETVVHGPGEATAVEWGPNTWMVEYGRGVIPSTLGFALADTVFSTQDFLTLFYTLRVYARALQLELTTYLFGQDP

Row | inhibition at 10 µM (sigma receptors [1]; 37° C., 150 min) | Ki (sigma receptors [1]; [5]) | SMILES | also measured
1 | 42% |  | C[C@@H]1CCN(C)[C@@H](C)[C@]1(C)CCCO (relative stereo) [Example 1b, 3-(1,2,3,4-tetramethyl-3-piperidine)propanol] | [3H]DTG Percent Inhibition (sigma receptors [2]): 39 percent (%)
2 |  | 5 ± 0.2 nM | C[C@@H]1CCN(C)[C@@H](C)[C@@H]1CCCOCC1CC1 (relative stereo) [Example 2c, 3-[3-(cyclopropylmethoxy)propyl]1,2,4-trimethylpiperidine] | 
3 |  | 16700 nM | C[C@@H]1CCN[C@@H](C)[C@]1(C)CCCO (relative stereo) [Example 3c, 2.3.4-trimethyl-3-piperidinepropanol] | [3H]DTG Percent Inhibition (sigma receptors [2]): 23 percent (%)
4 | 99% | 45 ± 2 nM | CCCN1CC[C@@H](C)[C@@](C)(CCCOCC2CC2)[C@@H]1C (relative stereo) [Example 3f, 3-[3-(cyclopropylmethoxy)propyl]-2,3,4-trimethyl-1-propylpiperidine] | 
5 |  | 3.7 ± 0.4 nM | C[C@@H]1CCN(Cc2ccccc2)[C@@H](C)[C@]1(C)CCCOCC1CC1 (relative stereo) [Example 4, 3-[3-(cycloprolmethoxy)propyl]-2,3,4-trimethyl-1-(phenylmethyl)piperidine] | effect on stereotypic behavior [3]: did not affect stereotypic behavior; minimal effective dose [4]: 167 µmol/kg
6 | 17% |  | CC(C)N1CC[C@@H](C)[C@@](C)(CCCO)[C@@H]1C (relative stereo) [Example 5a, 2,3. 4-trimethyl-l-(1-methylethyl)-3-piperidinepropanol] | [3H]DTG Percent Inhibition (sigma receptors [2]): 30 percent (%)
7 | 91% | 435 ± 17 nM | CC(C)N1CC[C@@H](C)[C@@](C)(CCCOCC2CC2)[C@@H]1C (relative stereo) [Example 5b, 3-[3-(cyclopropylmethoxy)propyl]-2,3,4-trimethyl-1-(1-methylethyl)piperidine] | 
8 | 89% | 559 ± 64 nM | C=CCOCCC[C@]1(C)[C@H](C)CCN(C)[C@H]1C (relative stereo) [Example 6] | 
9 | 76% |  | C#CCOCCC[C@]1(C)[C@H](C)CCN(C)[C@H]1C (relative stereo) [Example 7] | 
10 | 85% |  | C[C@@H]1CCN(Cc2ccccc2)[C@@H](C)[C@]1(C)CCO (relative stereo) [Example 8b, 2,3,4-trimethyl-1-(phenylmethyl)-3-piperidineethanol] | 
11 | 99% | 300 ± 65 nM | C=CCOCC[C@]1(C)[C@H](C)CCN(Cc2ccccc2)[C@H]1C (relative stereo) [Example 9] | 
12 |  | 7670 nM | COCCC[C@]1(C)[C@H](C)CCN(C)[C@H]1C (relative stereo) [Example 13, 3-(3-methoxypropyl)-1,2,3,4-tetramethylpiperidine] | 

Row | SMILES | inhibition at 10 µM (sigma receptors [1]; 37° C., 150 min) | Ki (sigma receptors [1]; [5]) | also measured
13 | C[C@@H]1CCN(C)[C@@H](C)[C@]1(C)CCCOCC1CC1 (relative stereo) [Example 1c, 3-[3-(cyclopropylmethoxy)propyl]1,2,3,4-tetramethylpiperidine] | 94% |  | Ki (sigma receptors [1]): 197 ± 32 nM
